Test results taken from DBAASP.
≈ marks a conversion by molar mass, not a printed value. Where “and” joins values, the source holds several entries; their conditions need not be identical. Equal values may be shown once. Values belong to the compound of their own block, whether it stands above or below them.

Tests used:
Experiment in all cases: ≥ marks a high value that may be exact or a test limit, other limits are often not marked, values filed in µg/mL are converted to µM
Acinetobacter baumannii = system: Acinetobacter baumannii
Klebsiella pneumoniae = system: Klebsiella pneumoniae
[1] = system: Escherichia coli ATCC 35218
Klebsiella aerogenes = system: Klebsiella aerogenes
Salmonella enterica = system: Salmonella enterica
Klebsiella oxytoca = system: Klebsiella oxytoca
Enterobacter cloacae = system: Enterobacter cloacae
[2] = system: Staphylococcus haemolyticus
Pseudomonas aeruginosa = system: Pseudomonas aeruginosa
[3] = system: Staphylococcus epidermidis
Serratia marcescens = system: Serratia marcescens
Staphylococcus aureus = system: Staphylococcus aureus
[4] = system: Staphylococcus saprophyticus
Proteus mirabilis = system: Proteus mirabilis
[5] = system: Pseudomonas aeruginosa PAO1
Escherichia coli CFT073 = system: Escherichia coli CFT073
[6] = system: Escherichia coli ATCC 25922
Escherichia coli UTI89 = system: Escherichia coli UTI89
[7] = system: Pseudomonas aeruginosa ATCC 27853
Escherichia coli = system: Escherichia coli
[8] = system: Staphylococcus aureus ATCC 25923
[9] = system: Pseudomonas aeruginosa 891
[10] = system: Staphylococcus aureus MIU-68A
[11] = system: Pseudomonas aeruginosa 885149
[12] = system: Escherichia coli DSM 1116
[13] = system: Franconibacter helveticus DSM 18390
[14] = system: Staphylococcus xylosus DSM 20267
[15] = system: Staphylococcus aureus FDA486
Escherichia coli BL21 = system: Escherichia coli BL21
[16] = system: Staphylococcus aureus ATCC 29213
Escherichia coli MG1655 = system: Escherichia coli MG1655
[17] = system: Staphylococcus aureus FusA88700
[18] = system: Bacillus subtilis CICC 24434
Escherichia coli E44813 = system: Escherichia coli E44813
[19] = system: Pasteurella multocida C48-3
[20] = system: Salmonella enterica subsp. enterica serovar Choleraesuis C78-1
[21] = system: Salmonella typhimurium SL1344
[22] = system: Staphylococcus epidermidis LY8
[23] = system: Listeria monocytogenes CICC 21533
[24] = system: Escherichia coli NBRC 3972
[25] = system: Staphylococcus epidermidis NBRC 12993
[26] = system: Candida viswanathii NBRC 10321
[27] = system: Aspergillus oryzae NBRC 100959
[28] = system: Micrococcus luteus NBRC 3333

Compound: CC[C@H](C)[C@H](NC(=O)[C@H](Cc1ccc(O)cc1)NC(=O)[C@H](Cc1ccc(O)cc1)NC(=O)[C@H](CO)NC(=O)CNC(=O)CNC(=O)[C@H](CC(N)=O)NC(=O)[C@H](CCCN=C(N)N)NC(=O)[C@H](CC(C)C)NC(=O)[C@@H](N)Cc1ccccc1)C(=O)N[C@H](C(=O)N1CCC[C@H]1C(=O)N[C@@H](C)C(=O)N[C@@H](Cc1ccccc1)C(=O)N[C@@H](CCCN=C(N)N)C(=O)NCC(=O)N[C@@H](CCCCN)C(=O)NCC(=O)O)C(C)C [FLRNGGSYYIVPAFRGKG]
- MIC (Acinetobacter baumannii): 10 µM (≈ 20 µg/mL)
- MIC (Klebsiella pneumoniae): > 10 µM
- MIC [1]: 10 µM (≈ 20 µg/mL)
- MIC (Klebsiella aerogenes): 10 µM (≈ 20 µg/mL)
- MIC (Salmonella enterica): 10 µM (≈ 20 µg/mL)
- MIC (Klebsiella oxytoca): 10 µM (≈ 20 µg/mL)
- MIC (Enterobacter cloacae): 10 µM (≈ 20 µg/mL)
- MIC [2]: 10 µM (≈ 20 µg/mL)
- MIC (Pseudomonas aeruginosa): > 10 µM
- MIC [3]: 10 µM (≈ 20 µg/mL)
- MIC (Serratia marcescens): 10 µM (≈ 20 µg/mL)
- MIC (Staphylococcus aureus): > 10 µM
- MIC [4]: 10 µM (≈ 20 µg/mL)
- MIC (Proteus mirabilis): 10 µM (≈ 20 µg/mL)

Compound: CC[C@H](C)[C@H](N)C(=O)N[C@@H](C)C(=O)N[C@@H](C)C(=O)N[C@@H](CCC(=O)O)C(=O)N[C@@H](CCCN=C(N)N)C(=O)N[C@@H](CCCN=C(N)N)C(=O)N[C@@H](Cc1ccc(O)cc1)C(=O)N[C@@H](C)C(=O)N[C@H](C(=O)N[C@H](C(=O)N[C@@H](Cc1ccc(O)cc1)C(=O)N[C@@H](CCC(N)=O)C(=O)N[C@@H](C)C(=O)N[C@@H](CCCN=C(N)N)C(=O)N[C@@H](CC(C)C)C(=O)N[C@@H](Cc1c[nH]c2ccccc12)C(=O)N[C@@H](C)C(=O)N[C@@H](Cc1ccccc1)C(=O)O)[C@@H](C)CC)[C@@H](C)O [IAAERRYATIYQARLWAF]
- MIC [5]: 56.8 µM (≈ 125 µg/mL)
- MIC (Escherichia coli CFT073): ≥ 56.8 µM
- MIC [6]: 56.8 µM (≈ 125 µg/mL)
- MIC (Escherichia coli UTI89): ≥ 56.8 µM
- MIC [7]: 56.8 µM (≈ 125 µg/mL)
- MIC (Escherichia coli): 80.4 µM (≈ 177 µg/mL)

Compound: CC[C@H](C)[C@H](NC(=O)[C@@H](N)CCCCN)C(=O)N[C@@H](CCCN=C(N)N)C(=O)N[C@H](C(=O)N[C@@H](CCCN=C(N)N)C(=O)N[C@@H](CC(C)C)C(=O)N[C@@H](CO)C(=O)N[C@@H](C)C(=O)O)C(C)C [KIRVRLSA]
- MIC [8]: 136 µM (≈ 128 µg/mL)
- MIC (Klebsiella pneumoniae): > 136 µM
- MIC [6]: 17 µM (≈ 16 µg/mL)
- MIC [7]: 17 µM (≈ 16 µg/mL)
- MIC [9]: 17 µM (≈ 16 µg/mL)
- MIC (Escherichia coli): 136 µM (≈ 128 µg/mL)
- MIC [10]: ≥ 136 µM
- MIC [11]: ≥ 34 µM

Second part, led by results:

- MIC [12]: 6.53 µM and 3.27 µM
- MIC [13]: 3.27 µM and 1.63 µM
- MIC [14]: 1.63 µM (≈ 2 µg/mL)
Compound: CC(C)C[C@H](NC(=O)[C@H](CCCCN)NC(=O)[C@H](CC(C)C)NC(=O)[C@H](CCCCN)NC(=O)[C@H](CC(C)C)NC(=O)[C@H](CCCCN)NC(=O)[C@H](CC(C)C)NC(=O)[C@H](CCCCN)NC(=O)[C@H](CC(C)C)NC(=O)[C@@H](N)CCCCN)C(N)=O [KLKLKLKLKL]

- MIC [15]: 3 µM (≈ 11 µg/mL)
- MIC (Escherichia coli BL21): 5 µM (≈ 18.4 µg/mL)
- MIC [16]: 3 µM (≈ 11 µg/mL)
- MIC [3]: 3 µM (≈ 11 µg/mL)
- MIC (Staphylococcus aureus): 3 µM (≈ 11 µg/mL)
- MIC (Escherichia coli MG1655): 11 µM (≈ 40.4 µg/mL)
- MIC [17]: 3 µM (≈ 11 µg/mL)
Compound: CC[C@H](C)[C@H](NC(=O)[C@H](CCCCN)NC(=O)[C@H](CCCN=C(N)N)NC(=O)[C@H](CCCCN)NC(=O)[C@H](CCCCN)NC(=O)[C@H](CCCCN)NC(=O)[C@H](Cc1c[nH]c2ccccc12)NC(=O)[C@H](CCCCN)NC(=O)[C@@H](NC(=O)[C@H](CC(C)C)NC(=O)[C@H](Cc1c[nH]c2ccccc12)NC(=O)[C@H](CCCN=C(N)N)NC(=O)[C@H](CC(=O)O)NC(=O)[C@H](CCSC)NC(C)=O)C(C)C)C(=O)N[C@@H](CCCN=C(N)N)C(=O)N[C@@H](CCCN=C(N)N)C(=O)N[C@@H](CCCN=C(N)N)C(=O)N[C@@H](CCCN=C(N)N)C(=O)N[C@@H](CCCN=C(N)N)C(=O)N[C@@H](CCCN=C(N)N)C(=O)N[C@@H](CCCN=C(N)N)C(=O)N[C@@H](CCCN=C(N)N)C(=O)N[C@@H](CCCN=C(N)N)C(=O)N[C@@H](CCCN=C(N)N)C(=O)N[C@@H](CCCN=C(N)N)C(N)=O [MDRWLVKWKKKRKIRRRRRRRRRRR]

- MIC [18]: 0.519 µM (≈ 1.56 µg/mL)
- MIC (Escherichia coli E44813): 4.16 µM (≈ 12.5 µg/mL)
- MIC [8]: 0.0083 µM (≈ 0.0249 µg/mL)
- MIC [19]: 0.519 µM (≈ 1.56 µg/mL)
- MIC [21]: 0.519 µM (≈ 1.56 µg/mL)
- MIC [22]: 8.32 µM (≈ 25 µg/mL)
- MIC [23]: ≥ 41.6 µM
Compound: CC[C@H](C)[C@H](NC(=O)[C@@H](NC(=O)[C@@H](N)CCCN=C(N)N)[C@@H](C)CC)C(=O)N[C@@H](CC(=O)O)C(=O)N[C@@H](CCCN=C(N)N)C(=O)N[C@@H](CC(C)C)C(=O)N[C@@H](Cc1c[nH]c2ccccc12)C(=O)N[C@@H](CCCN=C(N)N)C(=O)N[C@H](C(=O)N[C@@H](CCCN=C(N)N)C(=O)N[C@@H](CCCN=C(N)N)C(=O)N1CCC[C@H]1C(=O)N[C@@H](CCC(N)=O)C(=O)N[C@@H](CCCCN)C(=O)N1CCC[C@H]1C(=O)N[C@@H](CCCCN)C(=O)N[C@@H](Cc1ccccc1)C(=O)N[C@H](C(=O)N[C@H](C(=O)N[C@H](C(=O)N[C@@H](Cc1c[nH]c2ccccc12)C(=O)N[C@H](C(=O)N[C@@H](CCCN=C(N)N)C(=O)O)C(C)C)C(C)C)[C@@H](C)O)C(C)C)C(C)C [RIIDRLWRVRRPQKPKFVTVWVR]
- MIC [20]: 0.26 µM (≈ 0.78 µg/mL)

- MIC [24]: ≥ 239 µM
- MIC [25]: 14.9 µM (≈ 25 µg/mL)
- MIC [26]: 29.8 µM (≈ 50 µg/mL)
- MIC [27]: 14.9 µM (≈ 25 µg/mL)
- MIC [28]: 29.8 µM (≈ 50 µg/mL)
Compound: CSCC[C@H](NC(=O)[C@H](CCCCN)NC(=O)[C@@H](NC(=O)[C@H](CCCN=C(N)N)NC(=O)[C@H](CCCCN)NC(=O)[C@H](Cc1c[nH]c2ccccc12)NC(=O)[C@H](Cc1ccccc1)NC(=O)[C@H](CCCN=C(N)N)NC(=O)[C@H](CCCCN)NC(=O)[C@H](CC(C)C)NC(=O)[C@H](CCCCN)NC(=O)[C@@H](N)CCCN=C(N)N)C(C)C)C(=O)O [RKLKRFWKRVKM]
